Experiments:
[1] = Single dose LD10 determination; type: in vivo; conditions: BALB/c mice
MCF-7 xenografts [2] = experiment: Growth of subcutaneous MCF-7 xenografts in athymic nude mice; type: in vivo, mouse; conditions: 30 mg/kg intraperitoneal weekly, after 32 days
Description: Subcutaneous flank xenografts of the human breast cancer cell line, MCF-7 in nu/nu female mice (Harlan) were used to study the anti-tumor effects of C75 in vivo. All animal experiments complied with institutional animal care guidelines. All mice received a 90-day slow-release subcutaneous estrogen pellet (Innovative Research) in the anterior flank 7 days before tumor inoculation. […] MCF-7 cells were xenografted from culture in DMEM supplemented with 10% FBS and insulin 10 μg/ml.
(§1) Treatment began when measurable tumors developed about 10 days after inoculation. Eleven mice (divided among two separate experiments of 5 and 6 mice each) were treated intraperitoneally with wcekly doses of C75 at 30 mg/kg in 0.1 ml RPMI. […] Eleven control mice (divided in the same way as the treatment groups) received RPMI alone. Tumor volume was measured with calipers in three dimensions. Experiment was terminated when controls reached the surrogate endpoint.

MCF-7 xenografts [3] = experiment: Histology of treated xenograft tumors; type: in vivo, mouse; conditions: 6 hours after 30 mg/kg
Description: (§2) In an additional parallel experiment to histologically examine treated and control tumors, 6 C75 treated and 6 vehicle control mice were sacrificed 6 hours after treatment. Tumor and normal tissues were fixed in neutral-buffered formalin, processed for routine histology, and immunohistochemistry for FAS was performed. Immunohistochemistry for FAS was performed on the MCF-7 xenografts using a mouse monoclonal anti-FAS antibody (Alo, et al., 1996) at 1:2000 on the Dako Immunostainer using the LSAB2 detection kit.

[4] = tested on: SKBR3 and MCF7 human breast cancer cell lines; experiment: Fatty acid synthesis activity, [U-14C]-acetate pulse labeling of lipids; type: cell-based; conditions: for [U14C-acetate] incorporation into lipids: SKBR3 and MCF7, labeled for 2 hours after exposure to inhibitor; for dose range of maximal inhibition of FA synthesis: all cell lines tested
Description: The human breast cancer cell lines, SKBR3 and MCF7 were maintained in RPMI with 10% fetal bovine serum. Cells were screened periodically for Mycoplasma contamination (Gen-probe). All inhibitors were added as stock 5 mg/ml solutions in DMSO. For fatty acid synthesis activity determinations, 5×10^4 cells/well in 24 well plates were pulse labeled with [U-^14C]-acetate after exposure to drug, and lipids were extracted and quantified as described previously (Pizer, et al., 1988). For MCF7 cells, pathway activity was determined after 2 hours of inhibitor exposure.

[5] = tested on: SKBR3 and MCF7 human breast cancer cells; experiment: Clonogenic assay (Example 2); type: cell-based; conditions: for cytotoxicity in clonogenic assays: inhibitors 6 hours, dose range for ACC or FAS inhibition
Description: Cells and inhibitors were as described for Example 1. For clonogenic assays, 4×10^5 cells were plated in […] flasks with inhibitors added for 6 hours in concentrations listed. Equal numbers of treated cells and controls were plated in 60 mm dishes. Clones were stained and counted after 7 to 10 days.

[6] = Toxicity to host in nude mice (tolerability, histology of liver and other host tissues, weight); type: in vivo, mouse
Description: as §1, §2

[7] = tested on: fatty acid synthesis in MCF-7 xenografts and liver; experiment: Ex vivo [U-14C]-acetate labeling of tumor and liver of xenografted mice; type: in vivo, mouse; conditions: 30 mg/kg intraperitoneal, within 3 hours
Description: In a parallel experiment to determine fatty acid synthesis activity in treated and control tumors, a group of MCF-7 xenografted mice were treated with C75 or vehicle at above doses and sacrificed after 3 hours. Tumor and liver tissue were ex vivo labeled with [U^14-C] acetate, lipids were extracted and counted as described (Pizer, et al, 1996).

MCF-7 cells [8] = experiment: Malonyl-CoA levels by reversed phase HPLC; type: cell-based, human; conditions: for malonyl-CoA levels increased over controls: 1 hour exposure at 10 μg/ml
Description: Malonyl-CoA levels were measured in MCF-7 cells using the HPLC method of Corkey, et al. (1988, “Analysis of acyl-coenzyme A esters in biological samples,” Methods in Enzymology, 166:55-70). Briefly, 2.5×10^5 cells/well in 24 well plates were subjected to 1.2 ml of 10% TCA at 4° C. after various drug treatments. The pellet mass was recorded and the supernatant was washed 6 times with 1.2 ml of ether and reduced to dryness using vacuum centrifugation at 25° C. Coenzyme-A esters were separated and quantitated using reversed phase HPLC on a 5μ Supelco C18 column with a Waters HPLC system running Millenium^32 software monitoring 254 nm as the maximum absorbance for coenzyme-A. The following gradients and buffers were utilized: Buffer A: 0.1 M potassium phosphate, pH 5.0, Buffer B: 0.1 M potassium phosphate, pH 5.0, with 40% acetonitrile. Following a 20 min. isocratic run with 92% A, 8% B at 0.4 ml/min, flow was increased to 0.8 ml/min over one minute whereupon a linear gradient to 10% B was run until 24 min. then held at 10% B until 50 min. where a linear gradient was run to 100% B at 55 min., completing at 60 min. The following coenzyme-A esters (Sigma) were run as standards: malonyl-CoA, acetyl-CoA, glutathione-CoA, succinyl-CoA, HMG-CoA, and free CoA. Samples and standards were dissolved in 50 μl of buffer A. Coenzyme-A esters eluted sequentially as follows: malonyl-CoA, glutathione-CoA, free CoA, succinyl-CoA, HMG-CoA, and acetyl-CoA. Quantitation of coenzyme-A esters was performed by the Millenium^32 software.

MCF-7 cells [9] = experiment: Cell growth inhibition assay, crystal violet; type: cell-based, human; conditions: for growth inhibition: 48 hours after treatment, Example 12
MCF-7 cells [10] = experiment: Fatty acid oxidation, 14CO2 released from [14C]palmitate; type: cell-based, human
Description: Fatty acid oxidation was measured by trapping and counting the ^14CO2 released from the oxidation of [^14C]palmitate in base. 1×10^6 MCF-7 cells were plated in T-25 flasks in triplicate and incubated overnight at 37° C. […] After 2 hours, medium with drugs was removed and cells were preincubated for 30 minutes with 1.5 ml of the following buffer: 114 mM NaCl, 4.7 mM KCI, 1.2 mM KH2PO4, 1.2 mM MgSO4, glucose 11 mM. After preincubation, 200 μl of assay buffer was added containing: 114 mM NaCl, 4.7 mM KCl, 1.2 mM KH2PO4, 1.2 mM MgSO4, glucose 11 mM, 2.5 mM palmitate (containing with 100 μCi of [1-^14C]palmitate) bound to albumin, 0.4 mM L-camitine, and cells were incubated at 37° C. for 2 hours. Following the incubation, 400 μl of benzothonium hydrochloride was added to the center well to collect released ^14CO2. […] The flasks with wells were then incubated for 2 hours at 37° C. after which the benzothonium hydrochloride was removed and counted for ^14C.

[11] = in vivo; cited from earlier work
MCF-7 cells [12] = experiment: Clonogenic assay (Example 11); type: cell-based, human; conditions: 6 h exposure; TOFA at 5 μg/ml
Description: After overnight incubation at 37° C., 1×10^6 MCF-7 cells were exposed to drugs as indicated for 6 h, washed, detached by trypsin digestion, counted and plated at 1000 or 500 cells/60-mm plate in triplicate. Colonies were stained with crystal violet and counted 4-6 days after plating. Controls consisted of cells incubated with DMSO without drugs. Error bars represent standard error of the mean.

CPT-1 = experiment: Carnitine palmitoyltransferase-1 (CPT-1) assay in permeabilized MCF-7 cells; type: cell-based, human
Description: MCF-7 cells were plated in RPMI 1640 with 10% fetal bovine serum at 1×10^6 cells in six-well plates in triplicate. Following overnight incubation at 37° C., medium was removed and replaced with 700 μl of assay medium consisting of: 50 mM imidazole, 70 mM KCl, 80 mM sucrose, 1 mM EGTA, 2 mM MgCl2, 1 mM DTT, 1 mM KCN, 1 mM ATP, 0.1% fatty acid free bovine serum albumin, 70 μM palmitoyl-CoA, 0.25 μCi (methyl-^14C]L-camitine, 40 μg digitonin with or without 20 μM malonyl-CoA or other indicated inhibitors.
After incubation for 3 or 6 minutes at 37° C., the reaction was stopped by the addition of 500 μl of ice-cold 4 M perchloric acid. Cells were then harvested and centrifuged at 10,000× g for 5 min. The pellet was washed with 500 μl ice cold perchloric acid and centrifuged again. The resulting pellet was resuspended in 800 μl dH2O and extracted with 150 μl of butanol. The butanol phase was counted by liquid scintillation and represents the acylcarnitine derivative.

SKBR3 and MCF7 cells = experiment: Apoptosis by multiparameter flow cytometry, merocyanine 540 staining; type: cell-based, human
Description: Apoptosis was measured by multiparameter flow cytometry using a FACStar^Plus flow cytometer equipped with argon and krypton lasers (Becton Dickinson). Apoptosis was quantified using merocyanine 540 staining (Sigma), which detects altered plasma membrane phospholipid packing that occurs early in apoptosis, added directly to cells from culture (Pizer, et al., 1998; Mower, et al., 1994, “Decreased membrane pospholipid packing and decreased cell size precede DNA cleavage in mature mouse B cell apoptosis, J. Immunol., 152:4832-4842). In some experiments, chromatin conformational changes of apoptosis were simultaneously measured as decreased staining with LDS-751 (Exciton) (Frey, et al., 1995, “Nucleic acid dyes for detection of apoptosis in live cells,” Cytometry, 21:265-274). […] Cells were stained with LDS-751 at a final concentration of 100 nM from a 1 mM stock in DMSO. The merocyanine 540-positive cells were marked by an increase in red fluorescence, collected at 575+/−20 nm, 0.5 to 2 logs over merocyanine 540-negative cells. […] Data were collected and analyzed using CellQuest software (Becton Dickinson). In these experiments, all LDS-751 dim cells were merocyanine 540 bright, however a population of merocyanine 540 bright cells were detected that were not yet LDS-751 dim. All merocyanine 540 bright cells were classified as apoptotic.

M-CPT-1 = conditions: cited from earlier work

## C=C1C(=O)OC(CCCCCCCC)C1C(=O)O (stereo not shown) [C75]
[1]
  LD10: 40 mg/kg
MCF-7 xenografts [2]
  difference in tumor growth compared to vehicle controls: greater than eight-fold
MCF-7 xenografts [3]
  tumor histology: numerous apoptotic bodies throughout the tumor tissue
[4]
  [U14C-acetate] incorporation into lipids: inhibited
  dose range of maximal inhibition of FA synthesis: ~10 µg/mL
[5]
  cytotoxicity in clonogenic assays: significantly cytotoxic
[6]; 30 mg/kg, outbred nude mice
  tolerability: well tolerated
[6]; following C75 treatment
  histological analysis of liver and other host tissues: no evidence of any short or long term toxicity
[6]; weekly intraperitoneal treatment
  toxicity noted: transient reversible weight loss was the only toxicity noted
[7]
  reduction of fatty acid synthesis in MCF-7 xenografts: 70%
  reduction of fatty acid synthesis in ex vivo labeled liver: 76%
MCF-7 cells [8]
  malonyl-CoA levels increased over controls: 370%
MCF-7 cells [9]
  growth inhibition: significant growth inhibition over control

## O=C([O-])C1(CCCCCCOc2ccc(Cl)cc2)CO1.[Na+] (stereo not shown) [Etomoxir]
MCF-7 cells [10]; 50 μg/ml
  fatty acid oxidation decreased over control: > 50%
[11]
  toxicity in humans treated for diabetes: without significant toxicity or weight loss
MCF-7 cells [12]
  cytotoxicity in clonogenic assay: not significantly cytotoxic
CPT-1; 10 μg/ml
  reduction in CPT-1 activity: 75%
MCF-7 cells [9]; 200 μg/ml, the only effective dose
  reduction in growth: significant reduction in growth
MCF-7 cells [9]
  growth inhibition: significant growth inhibition over control
MCF-7 cells [9]; doses known to inhibit CPT-1 and fatty acid oxidation, 48 or 72 h, Example 10
  growth inhibition or cytotoxicity: no significant growth inhibition or cytotoxicity
MCF-7 cells [9]; over 72 h, Example 7
  growth inhibition of MCF-7 cells: dose dependent growth inhibition of MCF-7 cells over 72 h greater than that of C75 at 5 μg/ml

## CCCCCCCCCCCCCCOc1ccc(C(=O)O)o1 [TOFA, 5-(tetradecyloxy)-2-furoic acid]
MCF-7 cells [10]; data not shown
  changes in fatty acid oxidation: nor does TOFA cause significant changes in fatty acid oxidation
[4]
  [U14C-acetate] incorporation into lipids: inhibited
  dose range of maximal inhibition of FA synthesis: 1 to 5 µg/mL
[5]
  reduction in clonogenicity: no reduction
  cytotoxicity in clonogenic assays: non-toxic or stimulatory
[5]; MCF7 cells
  TOFA rescue of C75 cytotoxicity in clonogenic assay: modest rescue
  TOFA rescue of cerulenin cytotoxicity in clonogenic assay: modest rescue
MCF-7 cells [12]
  cytotoxicity in clonogenic assay: not significantly cytotoxic
MCF-7 cells [8]; 20 μg/ml
  reduction of malonyl-CoA levels: 60%
CPT-1
  direct inhibition of CPT-1: does not cause CPT-1 inhibition
SKBR3 and MCF7 cells
  increase in apoptosis: < 5%
SKBR3 and MCF7 cells; SKBR3 and MCF7 cells
  TOFA rescue from cerulenin induced apoptosis: rescued cells from cerulenin induced apoptosis

## C/C=C/C/C=C/CCC(=O)[C@H]1O[C@H]1C(N)=O [cerulenin]
MCF-7 cells [10]; 10 μg/ml, 2 hours
  reduction in fatty acid oxidation compared to control: ~50%
[4]; MCF-7, 10 μg/ml, within 2 hours
  reduction in fatty acid synthesis: > 50%
[4]
  [U14C-acetate] incorporation into lipids: inhibited
  dose range of maximal inhibition of FA synthesis: ~10 µg/mL
[5]
  reduction in clonogenicity: 70%
  cytotoxicity in clonogenic assays: significantly cytotoxic
MCF-7 cells [8]; 10 μg/ml
  increase in malonyl-CoA: nine-fold
MCF-7 cells [8]
  malonyl-CoA levels increased over controls: 930%
SKBR3 and MCF7 cells
  apoptosis: > 85%

## CC(C)(COP(=O)(O)OP(=O)(O)OC[C@H]1O[C@@H](n2cnc3c(N)ncnc32)[C@H](O)[C@@H]1OP(=O)(O)O)[C@@H](O)C(=O)NCCC(=O)NCCSC(=O)CC(=O)O [malonyl-CoA]
M-CPT-1
  sensitivity of M-CPT-1 versus L-CPT-1 to malonyl-CoA inhibition: 100 fold
